Experimental data published in patent publication US20190002448A1, “SUBSTITUTED BENZOFURANYL AND BENZOXAZOLYL COMPOUNDS AND USES THEREOF” (Karyopharm Therapeutics Inc., priority 2015, published 2019).

Experiments:
Type in all cases: cell-based
Z138 cells = test: MTT cell proliferation assay, Z138 cells; settings: Homo sapiens, Z-138, approximately 64-72 hours incubation
Method: (§1) The MTT cell proliferation assay was used to study the cytotoxic properties of the compounds. The assay was performed according to the method described by Roche Molecular Biochemicals, with minor modifications. The assay is based on the cleavage of the tetrazolium salt, MTT, in the presence of an electron-coupling reagent. The water-insoluble formazan salt produced must be solubilized in an additional step. Cells grown in a 96-well tissue culture plate were incubated with the MTT solution for approximately 4 hours. After this incubation period, a water-insoluble formazan dye formed. After solubilization, the formazan dye was quantitated using a scanning multi-well spectrophotometer (ELISA reader). […] The cells were seeded at 5,000-10,000 cells in each well of 96-well plate in 100 μL of fresh culture medium and were allowed to attach overnight. The stock solutions of the compounds were diluted in 100 μL cell culture medium to obtain eight concentrations of each test compound, ranging from 1 nM to 30 μM. […] All optical densities were measured at 490 nm using a Vmax Kinetic Microplate Reader (Molecular Devices). In most cases, the assay was performed in duplicate and the results were presented as a mean percent inhibition to the negative control±SE. The following formula was used to calculate the percent of inhibition: Inhibition (%)=(1−(ODo/OD))×100.
(§2) The compounds were tested against MS751, Z138 and 3T3 cells. The MS751 cell line is derived from a metastasis to lymph node of human cervix from a patient diagnosed with squameous cell carcinoma of the cervix. The Z138 cell line is a mature B-cell acute lymphoblastic leukemia cell line derived from a patient with chronic lumphocytic leukemia. 3T3 cells are standard fibroblast cells; they were originally isolated from Swiss mouse embryo tissue.

MS751 cells = test: MTT cell proliferation assay, MS751 cells; settings: Homo sapiens; MS751 cervical squamous cell carcinoma cells; approximately 64-72 hours incubation; read-out: MTT Assay IC50 MS-751
Method: as §1, §2

3T3 cells = test: MTT cell proliferation assay, 3T3 cells; settings: Mus musculus, NIH3T3; 3T3 fibroblast cells; approximately 64-72 hours incubation
Method: as §1, §2

Measured: IC50

Nc1ccc(/C=C/C(=O)NCc2cc3cc(-c4ccc(C(=O)N5CCC(F)(F)CC5)cc4)cc(Oc4ccc(F)cc4)c3o2)cn1 [Compound 100, (E)-3-(6-aminopyridin-3-yl)-N-((5-(4-(4,4-difluoropiperidine-1-carbonyl)phenyl)-7-(4-fluorophenoxy)benzofuran-2-yl)methyl)acrylamide]
100 to 5000 nM: all assays above

Nc1ccc(/C=C/C(=O)NCc2cc3cc(-c4ccc(C(=O)N5CCC(F)(F)CC5)cc4)cc(Oc4cccc(F)c4)c3o2)cn1 [Compound 101, (E)-3-(6-aminopyridin-3-yl)-N-((5-(4-(4,4-difluoropiperidine-1-carbonyl)phenyl)-7-(3-fluorophenoxy)benzofuran-2-yl)methyl)acrylamide]
100 to 5000 nM: all assays above

Nc1ccc(/C=C/C(=O)NCc2cc3cc(-c4ccc(C(=O)N5CCC(F)(F)CC5)cc4F)cc(Oc4cccc(F)c4)c3o2)cn1 [Compound 102, (E)-3-(6-aminopyridin-3-yl)-N-((5-(4-(4,4-difluoropiperidine-1-carbonyl)-2-fluorophenyl)-7-(3-fluorophenoxy)benzofuran-2-yl)methyl)acrylamide]
100 to 5000 nM: all assays above

Nc1ccc(/C=C/C(=O)NCc2cc3cc(-c4ccc(C(=O)N5CCC(F)(F)CC5)cc4F)cc(Oc4ccc(F)cc4)c3o2)cn1 [Compound 103, (E)-3-(6-aminopyridin-3-yl)-N-((5-(4-(4,4-difluoropiperidine-1-carbonyl)-2-fluorophenyl)-7-(4-fluorophenoxy)benzofuran-2-yl)methyl)acrylamide]
100 to 5000 nM: all assays above

Nc1ccc(/C=C/C(=O)NCc2cc3cc(-c4ccc(C(=O)N5CCC(F)(F)CC5)cc4)cc(OC4CCC4)c3o2)cn1 [Compound 104, (E)-3-(6-aminopyridin-3-yl)-N-((7-cyclobutoxy-5-(4-(4,4-difluoropiperidine-1-carbonyl)phenyl)benzofuran-2-yl)methyl)acrylamide]
100 to 5000 nM: all assays above

Nc1ccc(/C=C/C(=O)NCc2cc3cc(-c4ccc(C(=O)N5CCC(F)(F)CC5)cc4F)cc(OC4CCC4)c3o2)cn1 [Compound 105, (E)-3-(6-aminopyridin-3-yl)-N-((7-cyclobutoxy-5-(4-(4,4-difluoropiperidine-1-carbonyl)-2-fluorophenyl)benzofuran-2-yl)methyl)acrylamide]
100 to 5000 nM: all assays above
